Consider two compounds from PMC6480711, “The Molecular and Structural Basis of O-methylation Reaction in Coumarin Biosynthesis in Peucedanum praeruptorum Dunn” (International Journal of Molecular Sciences, 2019).

Test [1] has as its target T1, COMT-S (Kitagawia praeruptora, UniProt A0A4P8DY91).
T1 construct: full-length CDS in pET28a, 6xHis tag, E. coli BL21 (DE3), Superdex 200
T1 sequence (A0A4P8DY91 1-364): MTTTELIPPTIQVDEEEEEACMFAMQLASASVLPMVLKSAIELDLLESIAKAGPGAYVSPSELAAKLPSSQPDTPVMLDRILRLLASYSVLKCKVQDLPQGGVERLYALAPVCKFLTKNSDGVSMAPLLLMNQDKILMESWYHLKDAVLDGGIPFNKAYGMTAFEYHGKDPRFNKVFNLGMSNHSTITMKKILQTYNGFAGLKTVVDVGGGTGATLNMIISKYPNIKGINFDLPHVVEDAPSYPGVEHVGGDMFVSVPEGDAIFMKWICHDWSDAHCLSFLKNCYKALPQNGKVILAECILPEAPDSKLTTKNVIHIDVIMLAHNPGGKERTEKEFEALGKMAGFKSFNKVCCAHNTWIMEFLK
Briefly: isothermal titration calorimetry. It is filed as binding. The settings on record: 25 mM Tris-HCl pH 8.0, 150 mM NaCl, 25 °C; cofactor analogue (product of SAM). (In ITC the heat of successive injections is recorded.)

For test [2], the target named is T2, PpBMT (Kitagawia praeruptora, UniProt A0A166U5H3).
T2 construct: gene BMT; recombinant, construct as in the authors' previous report
Briefly: HPLC product analysis. The settings on record: co-substrate SAM; product bergapten. The format is biochemical.

T2 sequence (A0A166U5H3 whole entry): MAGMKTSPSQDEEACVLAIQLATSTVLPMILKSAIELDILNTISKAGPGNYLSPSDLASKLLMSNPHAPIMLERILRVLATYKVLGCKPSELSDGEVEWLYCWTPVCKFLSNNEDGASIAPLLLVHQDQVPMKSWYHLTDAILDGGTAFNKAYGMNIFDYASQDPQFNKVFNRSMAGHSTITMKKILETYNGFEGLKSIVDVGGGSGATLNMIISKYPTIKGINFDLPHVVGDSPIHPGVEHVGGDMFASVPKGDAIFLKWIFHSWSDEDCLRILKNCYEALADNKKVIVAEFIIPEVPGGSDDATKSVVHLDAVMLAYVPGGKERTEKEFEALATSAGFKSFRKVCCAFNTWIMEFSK

With `Nc1ncnc2c1ncn2[C@@H]1O[C@H](CSCC[C@H](N)C(=O)O)[C@@H](O)[C@H]1O` [SAH], the equilibrium dissociation constant result in test [1] was “The equilibrium dissociation constants of PpBMT/COMT–SAH interactions were determined by an MicroCal Auto-ITC200 calorimeter”.

For `O=c1ccc2c(O)c3ccoc3cc2o1` [bergaptol], the HPLC product analysis result in test [2] is “COMT-S could accept esculetin, bergaptol, and xanthotoxl as substrates, while BMT could only catalyze bergaptol”.
